This passage reports melting point results from a melting point compilation (Tetko et al.).

Broadly, the melting point is the temperature, or range, at which the solid turns liquid.

With `CC(C)(C)OC(=O)N1CC(O)(c2ccc(F)c(F)c2)C1`, the melting point was in the range of 69 to 71 °C.
Then `NS(=O)(=O)c1cccc(O)c1`, with 159 to 161 °C.
`COc1cc(CN)ccc1OC(C)(C)C` registered a melting point of 52 to 54 °C.
With `CCOC(=O)CCc1nc(CC(=O)NC)no1` the figure was 84 to 86 °C; with `O=C(O)Cc1csc(-c2ccc(Br)s2)n1`, 142 to 144 °C; with `OCc1ccc(OCC(F)(F)F)cc1`, 64 to 66 °C.
With `O=C(O)c1cccc(S(=O)(=O)NCc2ccco2)c1` the figure was 190 to 192 °C; with `Cc1cc(C)nc(-n2cc(C(=O)O)c(C(C)C)n2)n1`, 171 to 173 °C.
Then `CS(=O)(=O)CCS(=O)(=O)Cl`, with 119 to 121 °C; and `Nc1cc(C(F)(F)F)c[nH]c1=O`, with 96 to 98 °C.
Take `Cc1cc(OCC(=O)O)ccc1C(C)C`: the melting point fell in the range of 117 to 121 °C.
Then `CCOC(=O)c1cnc(C(=O)O)c(Cl)c1`, with 114 to 116 °C; and `Cc1noc2nc(-c3ccccc3C(F)(F)F)cc(C(=O)O)c12`, with 170 to 172 °C; and `CC(C)Oc1ccc2ccccc2c1C=O`, with 65 to 67 °C.
With `COc1ccccc1-c1cc(N)on1` the figure was 93 to 95 °C; with `Cc1cc(-c2nc3cc(F)ccc3s2)ccc1N`, 191 to 193 °C.
Then `NC(CCl)=NO`, with 83 to 87 °C; and `COc1ccc(CCNC(N)=S)cc1OC`, with 159 to 161 °C; and `Cc1ccccc1-c1csc(N)n1`, with 80 to 82 °C.
In the case of `CC(=O)OCc1ccc(S(=O)(=O)C(F)F)cc1`, the melting point lay in the range of 75 to 77 °C.
Then `Cc1n[nH]c(=O)c2noc(C)c12`, with 213 to 215 °C; and `Cc1cc(C#N)ccc1C(=O)O`, with 192 to 194 °C.
With `COc1ccc(OCC(=O)O)c(C=O)c1` the figure was 154 to 156 °C.
Then `Cc1nn(C)c(C)c1-c1cc(C(=O)O)[nH]n1`, with 281 to 283 °C; and `NC(=S)COc1ccc(F)cc1`, with 120 to 122 °C; and `CCOC(=O)c1ccc2c(c1)nc(C)n2CC`, with 70 to 72 °C.
`Nc1nnc(CCCc2ccccc2)o1` registered a melting point of 165 to 167 °C.
With `O=C1NC(=O)c2cc(Cl)c(Cl)cc21` the figure was 217 to 219 °C; with `Cn1c(S)nnc1Cc1ccccc1`, 158 to 160 °C; with `CCCC(=O)Nc1ccc(Cl)c(N)c1`, 96 to 98 °C.
With `O=c1[nH]c(-c2ccncc2)no1` the figure was 259 to 261 °C.
For `Cc1c(Br)cccc1S(=O)(=O)Cl`, the melting point fell in the range of 64 to 66 °C.
With `Cc1ccc(Sc2ccc(Cl)cc2N)c(C)c1` the figure was 86 to 88 °C; with `O=C(O)c1cccc(N2NC(=O)C3CC=CCC3C2=O)c1` (stereo not drawn), 185 to 187 °C; with `CC(C)c1sc(NC(=O)CCl)nc1-c1ccccc1`, 136 to 138 °C.
Compound `O=C(O)Cc1ccon1` had a melting point of 84 to 86 °C.
Take `Nc1ccc(N2C(=O)CCC2=O)cc1`: the melting point is 239 to 241 °C.
`O=C(CCl)NCc1ccccc1[N+](=O)[O-]` returned a melting point of 93 to 95 °C.
With `N#Cc1ccc(F)c(CS(=O)(=O)Cl)c1` the figure was 105 to 107 °C; with `COC(=O)c1c(F)cc(C#N)cc1F`, 111 to 113 °C.
Then `O=C(O)[C@@H]1CCCN1C(=O)c1ccccn1`, with 165 to 167 °C.
With `Nc1ncc(Br)cc1S(=O)(=O)N1CCCC1` the figure was 169 to 171 °C; with `CN(C)CCCNC(N)=S`, 66 to 68 °C; with `COC(=O)CNc1cccc(F)c1`, 65 to 67 °C.
`OCCn1nc(-c2ccccc2)cc1-c1ccccc1` came in with a melting point of 96 to 98 °C.
With `Cc1cc(-n2c(C)c[nH]c2=O)no1`, the melting point was 134 to 136 °C.
Compound `CC(C)(C)NS(=O)(=O)c1cc(C(=O)O)ccc1Cl` showed a melting point of 212 to 214 °C.
With `O=C1OCCN1c1ccc([N+](=O)[O-])cc1` the figure was 154 to 156 °C; with `CCc1cccc(NC(N)=S)c1`, 85 to 87 °C.
With `CC(C)C(=O)N1CCCCC1C(=O)O` (stereo not drawn) the figure was 123 to 125 °C; with `COC(=O)CCNC(=O)c1ccc(N)cc1`, 99 to 101 °C.
Then `Nc1ccc(N2CCNC2=O)cc1`, with 171 to 173 °C.
For `NCc1ccnc(N)c1`, the melting point was in the range of 92 to 94 °C.
With `O=C(O)c1ccc2c(c1)COCO2` the figure was 189 to 191 °C; with `O=C(O)c1cc(S(=O)(=O)Cl)cc(Cl)c1Cl`, 151 to 153 °C; with `Nc1ccc(-c2nc3cccc(Cl)c3s2)cc1`, 149 to 151 °C.
Then `CC(C)Oc1ccc(C(O)CN2CCN(C)CC2)cc1` (stereo not drawn), with 103 to 105 °C.
With `N#CCn1c(CCl)nc2ccccc2c1=O` the figure was 143 to 145 °C; with `CCOc1ccc(Br)cc1S(=O)(=O)NC`, 107 to 109 °C.
In turn, `COC(=O)c1ccc2c(c1)CCN2` registered a melting point of 74 to 76 °C.
Then `O=C(O)Cc1cccc(OCc2ccccc2Cl)c1`, with 64 to 66 °C; and `O=C(CCCl)N1CCN(c2ccc(F)cc2)CC1`, with 99 to 101 °C; and `Nc1ncc(Cc2cccc(Br)c2)s1`, with 105 to 107 °C.
Then `O=C(Nc1cccc(Br)n1)c1ccccc1`, with 84 to 86 °C; and `CCc1c(C)nn(-c2cccc(C(=O)O)c2)c1C`, with 149 to 151 °C.
Then `CN(C)S(=O)(=O)c1ccc(N)c(N)c1`, with 193 to 195 °C; and `NC(=O)COc1cccc(O)c1`, with 134 to 136 °C; and `O=C(O)Cn1[nH]c(=O)ccc1=O`, with 235 to 237 °C.
Regarding `Nc1ccccc1C(=O)NCC1CCCO1` (stereo not drawn), the melting point is 78 to 80 °C.
With `O=C(O)CCSc1ccccc1` the figure was 59 to 61 °C.
With `Nc1cnccc1-c1cccc(F)c1` the figure was 66 to 68 °C.
With `Sc1nnc(-c2ccccc2Br)[nH]1` the figure was 195 to 197 °C; with `O=Cc1sc(N2CCCCC2)nc1Cl`, 89 to 91 °C; with `CCCn1ccnc1S`, 119 to 121 °C.
Compound `Clc1cc(-n2cccn2)ccn1` showed a melting point of 111 to 113 °C.
Then `Nc1ccc2c(ccn2CC(=O)N2CCOCC2)c1`, with 209 to 211 °C; and `CC(=O)c1cccc(N2CCOC2=O)c1`, with 82 to 84 °C; and `CN1CCc2nc(N)sc2C1`, with 168 to 170 °C.
With `Nc1ccc(C(=O)N2CCCCC2)c(Cl)c1` the figure was 148 to 150 °C; with `Cc1cc(COc2ccc(C(=O)O)cc2Br)no1`, 200 to 202 °C; with `CCC1CCCCC1NC(=O)c1ccnc(F)c1` (stereo not drawn), 69 to 71 °C.
Turning to `ClCc1ccc(Oc2cccc(Cl)c2Cl)cc1`, the melting point fell in the range of 62 to 64 °C.
Then `CC(C)Cn1ncc2cc(C(=O)O)cnc21`, with 175 to 177 °C.
Then `CC(=O)c1c(C)oc2nc(Br)nn12`, with 118 to 120 °C; and `Nc1cc(-n2cnnn2)ccc1Cl`, with 159 to 161 °C.
With `N#CCC(=O)NC1CCCC1` the figure was 92 to 94 °C.
`Nc1nnc(Cc2ccc(F)cc2)o1` had a melting point of 169 to 171 °C.
With `O=Cc1cnn(-c2cccc(Cl)c2)n1` the figure was 84 to 86 °C.
